Laboratory results from PMC4165196, “Curcumin, a Natural Antioxidant, Acts as a Noncompetitive Inhibitor of Human RNase L in Presence of Its Cofactor 2-5A In Vitro” (BioMed Research International, 2014).

Biological target: T1, human RNase L (Homo sapiens, UniProt Q05823)
T1 construct: gene RNASEL; full-length (741 a.a.) recombinant human RNase L, GST-RNase L fusion protein
T1 sequence (Q05823 1-741): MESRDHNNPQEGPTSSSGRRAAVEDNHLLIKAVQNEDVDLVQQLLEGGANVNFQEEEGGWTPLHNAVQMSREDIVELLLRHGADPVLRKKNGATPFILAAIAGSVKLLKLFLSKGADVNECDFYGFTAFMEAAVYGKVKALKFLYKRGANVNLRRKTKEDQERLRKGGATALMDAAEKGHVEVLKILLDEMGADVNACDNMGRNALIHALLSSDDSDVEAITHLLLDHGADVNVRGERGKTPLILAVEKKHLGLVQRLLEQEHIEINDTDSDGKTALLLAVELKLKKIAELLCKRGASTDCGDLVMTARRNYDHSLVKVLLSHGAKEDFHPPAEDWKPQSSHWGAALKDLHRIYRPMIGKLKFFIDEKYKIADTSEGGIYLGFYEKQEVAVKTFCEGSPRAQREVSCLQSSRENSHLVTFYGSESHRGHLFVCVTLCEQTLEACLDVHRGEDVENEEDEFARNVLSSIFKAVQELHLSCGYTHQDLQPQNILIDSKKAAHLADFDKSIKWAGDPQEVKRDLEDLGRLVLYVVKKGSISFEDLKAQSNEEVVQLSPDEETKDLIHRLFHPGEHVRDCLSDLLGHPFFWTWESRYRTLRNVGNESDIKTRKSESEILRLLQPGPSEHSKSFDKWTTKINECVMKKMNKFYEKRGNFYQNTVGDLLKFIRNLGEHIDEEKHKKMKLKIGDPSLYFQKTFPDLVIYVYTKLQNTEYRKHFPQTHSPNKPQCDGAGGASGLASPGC
Assay: intrinsic fluorescence quenching titration (Hill fit); also noncompetitive inhibition of purified GST-RNase L RNA degradation with […]-5A, Ki […], biphasic dose response
Assay type: binding

## COc1cc(/C=C/C(=O)CC(=O)/C=C/c2ccc(O)c(OC)c2)ccc1O [curcumin, 1,7-bis-[4 hydroxy-3-methoxy]-1,6 heptadiene-3,5-dione]
  Kd: 397 ± 18 nM
